Test results reported in patent US20220088144A1, “SGLT-2 INHIBITORS OR IL-1R ANTAGONISTS FOR REDUCTION OF HYPOGLYCAEMIA AFTER BARIATRIC SURGERY” (UNIVERSITÄTSSPITAL BASEL, priority 2019, published 2022).

Columns and labels:
[1] = biological target: T1, sodium glucose co-transporter 2 (SGLT2) (Homo sapiens, UniProt P31639); conditions: cited from earlier work
T1 construct: SGLT2 is predominantly expressed in the proximal tubule of the kidney; host or cells: endogenous transporter of the kidney proximal tubule (in vivo, patients)
T1 sequence (P31639 1-672): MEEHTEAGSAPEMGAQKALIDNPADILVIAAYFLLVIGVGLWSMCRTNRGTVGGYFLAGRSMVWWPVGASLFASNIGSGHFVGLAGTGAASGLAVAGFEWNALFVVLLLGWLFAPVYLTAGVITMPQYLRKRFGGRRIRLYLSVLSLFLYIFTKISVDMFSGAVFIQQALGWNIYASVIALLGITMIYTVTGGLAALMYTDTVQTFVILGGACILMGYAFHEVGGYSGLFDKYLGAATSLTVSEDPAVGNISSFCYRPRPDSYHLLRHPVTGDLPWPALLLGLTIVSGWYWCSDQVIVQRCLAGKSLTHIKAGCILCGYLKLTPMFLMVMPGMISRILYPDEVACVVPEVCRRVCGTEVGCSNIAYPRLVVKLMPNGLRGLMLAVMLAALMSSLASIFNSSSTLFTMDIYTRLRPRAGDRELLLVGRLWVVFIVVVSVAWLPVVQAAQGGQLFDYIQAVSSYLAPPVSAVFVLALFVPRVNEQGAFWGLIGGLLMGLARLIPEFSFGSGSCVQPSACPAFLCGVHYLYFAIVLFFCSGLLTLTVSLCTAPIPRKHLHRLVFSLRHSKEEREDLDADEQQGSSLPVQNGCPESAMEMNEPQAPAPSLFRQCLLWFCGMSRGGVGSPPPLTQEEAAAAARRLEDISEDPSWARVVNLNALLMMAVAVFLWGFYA

[2] = test system: patients after bariatric surgery with post-prandial hypoglycaemia; assay: Mixed-meal test: insulin, c-peptide, GLP-1, glucagon, insulin secretion and sensitivity indices; type: in vivo, human; conditions: for insulin AUC, estimate vs placebo: FIG. 5e; for insulin AUC, estimate vs placebo / c-peptide, estimate vs placebo / insulin, estimate vs placebo / insulin secretion index, effect estimate vs placebo: linear mixed effect model; for c-peptide, estimate vs placebo: FIG. 5f; for c-peptide, estimate vs placebo / insulin, estimate vs placebo: log-transformed outcome; for insulin, estimate vs placebo: FIG. 5d; for insulin secretion index, effect estimate vs placebo: placebo average 108.0 pmol/mmol; for Whole body insulin sensitivity index / Insulin secretion index: median, n=12; for Whole body insulin sensitivity index: placebo 38.0, single dose before mixed meal; for Insulin secretion index: placebo 104.6, single 10 mg empagliflozin oral 2 h or 100 mg anakinra s.c. 3 h before mixed meal; for insulin secretion / insulin release and c-peptide secretion over time: vs placebo
From the text: The 12 subjects were randomly assigned into six groups consisting of two subjects receiving study medication in a double-blind, crossed-over manner as outlined in FIG. 2. Patients need to be sober at least eight hours before ingestion of mixed-meal. To ensure that fasting period is not too long, patients receive a small late evening meal consisting of 4 DarVida Natural Crackers as well as 3 Sinergy® drops (see Appendix for specific contents) or are alternatively pleased to have their dinner at around 10 pm. Treatment consists of a single subcutaneous injection of 100 mg Anakinra (Kineret®) or matched placebo three hours before ingestion of the mixed-meal and of a single oral tablet of 10 mg of empagliflozin (Jardiance®) or matched placebo two hours before mixed-meal at each study day. Patients were randomised to receive in different sequences either (1) anakinra and an oral placebo to empagliflozin, (2) empagliflozin and a subcutaneous placebo (0.67 ml 0.9% saline) to anakinra or (3) double placebo. Participants, investigators and study nurses were blinded to the study drug.
(§1) The secondary objectives are to evaluate whether treatment of empagliflozin (Jardiance®) or anakinra (Kineret®) have effects on the following aspects: • level of insulin secretion and sensitivity • levels of GLP-1, glucagon and C-peptide • levels of IL-6; IL-1Ra, CRP • scores in Edinburgh Hypoglycaemia Scale (clinical score for assessment of hypoglycemia), Stanford Sleepiness Scale (clinical score of assessment of sleepiness) as well as Sigstad Score (clinical score for early and late dumping symptoms) • Length of time and amount of glucose needed for restoring normoglycemia.
Insulin secretion was measured using standard insulin ELISA.
(§2) Statistical analysis for this proof-of-concept translational clinical trial was done on a per-protocol basis. Sample size was based on practical considerations due to the lack of pre-existing data for this intervention. All analyses are to be considered exploratory. Analysis of continuous dependent outcome variables (e.g. glucose, insulin, c-peptide, GLP-1, glucagon, insulin secretion index and sensitivity, IL-1p, IL-6, IL-8, TNFα), was done using linear mixed effect models fit by maximum likelihood. Analysis of the binary dependent outcome variables occurrence of severe hypoglycemia requiring glucose rescue and occurrence of composite score ≥6 on the Edinburgh Hypoglycemia Scale was done using a generalized linear additive mixed effect model fit by maximum likelihood (Laplace approximation). Models were fit including fixed effects for categorical variables such as gender, the occurrence of hypoglycemia, treatment and in case of values measured in cell culture supernatants, activation status (non-stimulated, LPS-simulated), as well as the continuous variables time and BMI as indicated. A random-effect for patient was equally included (random by-subject intercepts, fixed slopes). Models were computed using the R “Ime4” and “gamm4” packages. • Individual models were visually assessed for the presence of heteroscedasticity, collinearity and normality of residuals. […] For visual representation, log-transformed outcome values were back-transformed to their initial values.
Treatment effects are presented in Table 6 as mean effect size estimates with 95% CIs, test-statistics and multiple comparison adjusted p-values (=FDR values). • Missing values for insulin (n=1), GLP-1 (n=4) and glucagon (n=5) were assumed to be missing at random and imputed using multiple imputation with the R-package “mice”. Inferential statistical analyses were done using R version 3.5.2. Descriptive statistics were done with GraphPad Prism8 version 8.0.1(145). […]

[3] = test system: patients after bariatric surgery with post-prandial hypoglycaemia; assay: Clinical symptom scores during mixed-meal test (Edinburgh Hypoglycemia Scale, Sigstad Score, Stanford Sleepiness Scale); type: in vivo, human; design: key to Edinburgh Hypoglycemia Scale score, timepoint 180 min / Edinburgh Hypoglycemia Scale score, timepoint −120 min / Edinburgh Hypoglycemia Scale score, timepoint 0 min / Edinburgh Hypoglycemia Scale score, timepoint 60 min / Edinburgh Hypoglycemia Scale score, timepoint 90 min / Edinburgh Hypoglycemia Scale score, timepoint 120 min / Edinburgh Hypoglycemia Scale score, timepoint 150 min: 0 (=no symptoms); 3 (=severe symptoms); a = sweating; b = palpitations; c = shaking; d = hunger; e = confusion; f = drowsiness; g = odd behaviour; h = speech difficulty; i = incoordination; conditions: for Edinburgh Hypoglycemia Scale score, timepoint 0 min / Edinburgh Hypoglycemia Scale score, timepoint 60 min / Edinburgh Hypoglycemia Scale score, timepoint 90 min / Edinburgh Hypoglycemia Scale score, timepoint 120 min / Edinburgh Hypoglycemia Scale score, timepoint 150 min / Edinburgh Hypoglycemia Scale score, timepoint 180 min / Edinburgh Hypoglycemia Scale score, timepoint −120 min: per patient and visit; for Edinburgh Hypoglycemia Scale score, timepoint 60 min: 60 min after meal; for Edinburgh Hypoglycemia Scale score, timepoint 90 min: 90 min after meal; for Edinburgh Hypoglycemia Scale score, timepoint 120 min: 120 min after meal; for Edinburgh Hypoglycemia Scale score, timepoint 150 min: 150 min after meal; for Edinburgh Hypoglycemia Scale score, timepoint 180 min: 180 min after meal; for model coefficient (treatment vs placebo) for occurrence of Edinburgh composite score ≥6: headed FIG. 11a, generalized linear additive mixed effect model; for Edinburgh Hypoglycemia Scale score, timepoint −120 min: −120 min relative to meal (time of oral dosing)
Description: The primary outcome in this study is the change of post-prandial hypoglycaemia after treatment with empagliflozin (Jardiance®) or anakinra (Kineret®) compared to placebo. This was assessed by blood glucose measurements (capillary POCT measurements and plasma glucose) as well as clinical scoring systems (Edinburgh Hypoglycaemia Scale (Deary et al. Diabetologia 1993; 36(8): 771-7), Mixed-Meal-Test (Wiesli et al. Eur J Endocrinol 2005; 152(4): 605-10.) Stanford sleepiness scale).
as §1, §2

[4] = Serum IL-1Ra level after anakinra injection; type: in vivo, human; conditions: average; 100 mg s.c.; increased from an average of 272 pg/ml
From the text: as §1
Individual body weights remained stable throughout the study period. […] Leukocyte and CRP levels were not elevated and remained stable throughout the trial.

In the case of `OC[C@H]1O[C@@H](c2ccc(Cl)c(Cc3ccc(O[C@H]4CCOC4)cc3)c2)[C@H](O)[C@@H](O)[C@@H]1O` [empagliflozin], the duration of glucosuria ([1]; after oral administration) is given as “at least 24 hours”, the glucosuria ([1]; in vivo) is given as 64 g glucose per day and the “insulin AUC, estimate vs placebo” value [2] is given as −19.32. For the same compound, the “c-peptide, estimate vs placebo” value [2] was −0.2237, the “insulin, estimate vs placebo” value [2] was −0.852 and the “insulin secretion index, effect estimate vs placebo” value [2] was −10.8 pmol/mmol. The “Whole body insulin sensitivity index” value [2] was 84.6, the Insulin secretion index [2] was 99.2 and the “insulin secretion / insulin release and c-peptide secretion over time” value [2] was “reduced”. The “Edinburgh Hypoglycemia Scale score, timepoint 0 min” value [3] was 0, the “Edinburgh Hypoglycemia Scale score, timepoint 60 min” value [3] was 0 and the “Edinburgh Hypoglycemia Scale score, timepoint 90 min” value [3] was 0. For the same compound, the “Edinburgh Hypoglycemia Scale score, timepoint 120 min” value [3] was 0, the “Edinburgh Hypoglycemia Scale score, timepoint 150 min” value [3] was 0 and the “Edinburgh Hypoglycemia Scale score, timepoint 180 min” value [3] was 0. The “model coefficient (treatment vs placebo) for occurrence of Edinburgh composite score ≥6” value [3] was −2.429 and the “Edinburgh Hypoglycemia Scale score, timepoint −120 min” value [3] was 0.

With “anakinra: CAS NO 143090-92-0; recombinant, non-glycosylated form of the human interleukin-1 receptor antagonist (IL-1 Ra), 153 amino acids” the “insulin AUC, estimate vs placebo” value [2] was −13.9, the “c-peptide, estimate vs placebo” value [2] was −0.0912 and the “insulin, estimate vs placebo” value [2] was −0.266. For the same compound, the “insulin secretion index, effect estimate vs placebo” value [2] was −18.5 pmol/mmol, the “Whole body insulin sensitivity index” value [2] was 72.1 and the Insulin secretion index [2] was 91.6. For the same compound, the “insulin secretion / insulin release and c-peptide secretion over time” value [2] was “reduced”, the “serum levels of IL-1Ra after injection of anakinra” value [4] was 0.043836 µg/mL and the “Edinburgh Hypoglycemia Scale score, timepoint 0 min” value [3] was 0. For the same compound, the “Edinburgh Hypoglycemia Scale score, timepoint 60 min” value [3] was 0, the “Edinburgh Hypoglycemia Scale score, timepoint 90 min” value [3] was 0 and the “Edinburgh Hypoglycemia Scale score, timepoint 120 min” value [3] was 0. The “Edinburgh Hypoglycemia Scale score, timepoint 150 min” value [3] was 0, the “Edinburgh Hypoglycemia Scale score, timepoint 180 min” value [3] was 0 and the “model coefficient (treatment vs placebo) for occurrence of Edinburgh composite score ≥6” value [3] was −2.429. The “Edinburgh Hypoglycemia Scale score, timepoint −120 min” value [3] was 0.
